Reference: ChEMBL document CHEMBL1255427, “Lack of a clinically relevant effect of an antacid on the pharmacokinetics of lersivirine” (Antimicrob Agents Chemother, 2010)

Key:
[1] = AUC (infinity) in healthy human plasma at 750 mg coadministered with 20 ml of antacid by HPLC-tandem mass spectrometry method; assay type: ADME, organism-based; set-up: dose 750 mg, time infinity
Homo sapiens [2] = test: Plasma concentration in healthy human plasma at 750 mg coadministered with 20 ml of antacid by HPLC-tandem mass spectrometry method; assay type: ADME, organism-based; conditions: in vivo
[3] = Cmax in healthy human plasma at 750 mg after 24 hrs coadministered with 20 ml of antacid by HPLC-tandem mass spectrometry method; assay type: ADME, organism-based; set-up: dose 750 mg
[4] = Tmax in healthy human plasma at 750 mg coadministered with 20 ml of antacid by HPLC-tandem mass spectrometry method; assay type: ADME, organism-based
[5] = Half life in healthy human plasma at 750 mg coadministered with 20 ml of antacid by HPLC-tandem mass spectrometry method; assay type: ADME, organism-based
[6] = AUC (infinity) in healthy human plasma at 750 mg by HPLC-tandem mass spectrometry method; assay type: ADME, organism-based; set-up: dose 750 mg, time infinity
Homo sapiens [7] = species on record: Homo sapiens; test: Plasma concentration in healthy human plasma at 750 mg by HPLC-tandem mass spectrometry method; assay type: ADME, organism-based; conditions: in vivo
[8] = Cmax in healthy human plasma at 750 mg after 24 hrs by HPLC-tandem mass spectrometry method; assay type: ADME, organism-based; set-up: dose 750 mg
[9] = Tmax in healthy human plasma at 750 mg by HPLC-tandem mass spectrometry method; assay type: ADME, organism-based
[10] = Half life in healthy human plasma at 750 mg by HPLC-tandem mass spectrometry method; assay type: ADME, organism-based
Homo sapiens [11] = species on record: Homo sapiens; test: Toxicity in healthy human assessed as death at 750 mg; assay type: organism-based; conditions: in vivo
Homo sapiens [12] = test: Toxicity in healthy human assessed as death at 750 mg coadministered with 20 ml of antacid; assay type: organism-based; conditions: in vivo
Homo sapiens [13] = species on record: Homo sapiens; test: Toxicity in healthy human assessed as serious adverse events at 750 mg; assay type: organism-based; conditions: in vivo
Homo sapiens [14] = test: Toxicity in healthy human assessed as serious adverse events at 750 mg coadministered with 20 ml of antacid; assay type: organism-based; conditions: in vivo
Homo sapiens [15] = species on record: Homo sapiens; test: Toxicity in healthy human assessed as gastrointestinal tract related toxicity at 750 mg; assay type: organism-based; conditions: in vivo
Homo sapiens [16] = test: Toxicity in healthy human assessed as gastrointestinal tract related toxicity at 750 mg coadministered with 20 ml of antacid; assay type: organism-based; conditions: in vivo

AUC(0-inf) [1]: 11.2 µg·h/mL
Cp (Homo sapiens [2]): 0.06441 µg/mL
Cmax [3]: 1.45 µg/mL
Tmax [4]: 2 h
half-life [5]: 6.22 h
AUC(0-inf) [6]: 11 µg·h/mL
Cp (Homo sapiens [7]): 0.08341 µg/mL
Cmax [8]: 1.52 µg/mL
Tmax [9]: 5 h
half-life [10]: 6.91 h
Structure (SMILES): CCc1nn(CCO)c(CC)c1Oc1cc(C#N)cc(C#N)c1 [LERSIVIRINE]
Activity (Homo sapiens [11]): Non-toxic
Activity (Homo sapiens [12]): Non-toxic
Activity (Homo sapiens [13]): Non-toxic
Activity (Homo sapiens [14]): Non-toxic
Activity (Homo sapiens [15]): Toxic
Activity (Homo sapiens [16]): Toxic
